# Where “and” joins values, the source holds several entries; their conditions need not be identical. Equal entries are not always repeated.
# Columns and labels:
# [1] = molecular target: T1, Xanthine oxidase (XOD) (Bos taurus, UniProt P80457); assay: XOD activity assay (absorbance at 290 nm, xanthine substrate); assay type: biochemical; details: XOD 0.02 U/mL, xanthine 0.48 mM, 37 °C, OD 290 nm; read-out: IC50 of XOD inhibition
# T1 construct: purchased Sigma-Aldrich Co., Ltd. (St. Louis, MO, USA)
# Procedure: The inhibitory effects of compounds were determined in the XOD activity assay according to a previous report with minor modifications. Celery seed extracts or the “hit” compounds from the UF–LC–MS screening assay were dissolved in PBS and prepared for a series of test solutions using 2-fold serial dilutions. Test solutions (50 μL) were mixed with XOD (50 μL at 0.02 U/mL) and incubated at 37 °C for 5 min. This was followed by the addition of XOD substrate xanthine (150 μL at 0.48 mM) and further incubation at 37 °C for 30 min. The optical density (OD) of each tube was then measured at 290 nm. Percent XOD inhibition was calculated using the following formula: %=1−A1−A2/A3−A4×100 where A1 was the absorbance of the production with the sample and XOD, A2 was the absorbance of the production with the sample, A3 was the absorbance of the production with PBS and XOD, and A4 was the absorbance of the production with PBS.
# [2] = molecular target: T2, Xanthine oxidase (XOD), febuxostat binding domain (Bos taurus, UniProt P80457); assay: Affinity ultrafiltration LC-MS (UF-LC-MS) screening, febuxostat-masked vs unmasked XOD; details: peak area with vs without febuxostat preincubation of XOD; extract 2 mg/mL
# T2 construct: purchased Sigma-Aldrich Co., Ltd. (St. Louis, MO, USA)
# Procedure: Based on the variation in the chromatogram with and without febuxostat binding in the XOD, the binding degree was used to evaluate the febuxostat competitive capacity of compounds in celery seeds. The binding degree (BD) was calculated as follows: BD(%)=Af−Ano_f/Af×100%
# Af and Ano_f represent the peak area of compounds in the chromatogram with and without preincubation with febuxostat, respectively.
# Identification of potential XOD inhibitors from celery seed extract was performed using UF–LC–MS according to a previous study with modification. To prepare the XOD interaction solution, 250 μL of XOD (0.5 U/mL) was incubated with 50 μL of febuxostat (the XOD inhibitor, 500 μg/mL in 10% DMSO-PBS, masked group) to mask the druggable binding domain of XOD or 10% DMSO-PBS (vehicle control, unmasked group) at 37 °C for 45 min. The extract (50 μL at 2 mg/mL in methanol) was then added to the interaction solution for a further 45 min. After incubation, the mixtures were transferred to a 10 kDa molecule weight cut-off ultrafiltration filter and centrifuged at 14,500 rpm for 20 min. The membrane was washed 3 times with 450 μL ddH2O to remove the unbound molecules. […] The elution solution was then ultrafiltered in the new filter units as described above. The final products in the bottom of the filter units were analyzed using a HPLC–MS system.
# T2 sequence (P80457 whole entry, the tested form may be a part): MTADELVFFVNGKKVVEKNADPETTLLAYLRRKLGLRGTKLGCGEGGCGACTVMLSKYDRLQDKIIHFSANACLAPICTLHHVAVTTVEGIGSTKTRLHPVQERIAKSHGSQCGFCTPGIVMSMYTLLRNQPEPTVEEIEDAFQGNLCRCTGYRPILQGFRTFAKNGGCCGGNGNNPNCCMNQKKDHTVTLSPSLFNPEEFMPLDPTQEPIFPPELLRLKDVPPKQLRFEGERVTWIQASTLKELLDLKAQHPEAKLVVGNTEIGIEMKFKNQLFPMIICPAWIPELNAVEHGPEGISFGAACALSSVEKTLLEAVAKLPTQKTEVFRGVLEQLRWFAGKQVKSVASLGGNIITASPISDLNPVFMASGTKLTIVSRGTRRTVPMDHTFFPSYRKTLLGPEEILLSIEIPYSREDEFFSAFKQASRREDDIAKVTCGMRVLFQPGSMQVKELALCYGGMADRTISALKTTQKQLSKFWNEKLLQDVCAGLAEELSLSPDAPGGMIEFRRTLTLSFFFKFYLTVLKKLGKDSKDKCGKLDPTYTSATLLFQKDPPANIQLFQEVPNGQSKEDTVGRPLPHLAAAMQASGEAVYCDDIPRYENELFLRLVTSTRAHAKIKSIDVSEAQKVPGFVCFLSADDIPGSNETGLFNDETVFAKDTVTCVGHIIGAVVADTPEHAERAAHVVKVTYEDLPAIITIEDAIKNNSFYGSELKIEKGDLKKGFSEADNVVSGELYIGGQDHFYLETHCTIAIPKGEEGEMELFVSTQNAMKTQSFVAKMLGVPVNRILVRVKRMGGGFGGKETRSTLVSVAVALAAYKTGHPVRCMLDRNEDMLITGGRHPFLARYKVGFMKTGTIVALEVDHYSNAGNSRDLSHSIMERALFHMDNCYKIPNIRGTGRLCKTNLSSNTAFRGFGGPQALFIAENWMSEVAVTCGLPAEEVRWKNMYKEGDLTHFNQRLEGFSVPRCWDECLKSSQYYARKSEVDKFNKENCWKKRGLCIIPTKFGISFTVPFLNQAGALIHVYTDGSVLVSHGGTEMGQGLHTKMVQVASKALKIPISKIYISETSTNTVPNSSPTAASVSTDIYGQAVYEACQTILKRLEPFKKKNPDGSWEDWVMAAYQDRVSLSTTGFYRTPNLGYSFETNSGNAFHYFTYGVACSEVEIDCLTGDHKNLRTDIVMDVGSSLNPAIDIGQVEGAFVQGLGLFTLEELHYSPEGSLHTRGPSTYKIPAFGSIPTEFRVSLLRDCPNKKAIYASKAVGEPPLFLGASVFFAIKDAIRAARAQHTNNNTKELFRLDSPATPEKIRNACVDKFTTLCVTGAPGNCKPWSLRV
# T1 sequence (P80457 whole entry): as the sequence (P80457 whole entry, the tested form may be a part) above
SMILES,IC50 [1],binding degree (BD) [2] [%]
"O=c1cc(-c2ccc(O)c(O)c2)oc2cc(O[C@@H]3O[C@H](CO)[C@@H](O)[C@H](O)[C@H]3O)cc(O)c12 [Compound 10, Luteolin 7-O-glucoside]",976 µM,95.9
"O=c1cc(-c2ccc(O)c(O)c2)oc2cc(O)cc(O)c12 [Compound 21, Luteolin]",69.2 µM,97.8
"O=c1cc(-c2ccc(O)cc2)oc2cc(O)cc(O)c12 [Compound 24, Apigenin]",93 µM and 92.6 µM,95.5
"O=C(O)CC(=O)OC[C@H]1O[C@@H](Oc2cc(O)c3c(=O)cc(-c4ccc(O)c(O)c4)oc3c2)[C@H](O)[C@@H](O)[C@@H]1O [Compound 15, Luteolin 7-O-6′-malonyl glucoside]",2020 µM,99.0
"O=C(O)CC(=O)OC[C@H]1O[C@@H](Oc2cc(O)c3c(=O)cc(-c4ccc(O)cc4)oc3c2)[C@H](O[C@@H]2OC[C@](O)(CO)[C@H]2O)[C@@H](O)[C@@H]1O [Compound 19, 6″-Malonylapiin]",–,63.2
"O=c1cc(-c2ccc(O)c(O)c2)oc2cc(O[C@@H]3O[C@H](CO)[C@@H](O)[C@H](O)[C@H]3O[C@@H]3OC[C@](O)(CO)[C@H]3O)cc(O)c12 [Compound 9, Luteolin 7-O-apiosylglucoside]",3140 µM,89.1
"COc1cc(-c2cc(=O)c3c(O)cc(O)cc3o2)ccc1O [Compound 25, Chrysoeriol]",–,96.7
"C[C@@]1(O)CO[C@@H](O[C@H]2[C@H](Oc3cc(O)c4c(=O)cc(-c5ccc(O)c(O)c5)oc4c3)O[C@H](COC(=O)CC(=O)O)[C@@H](O)[C@@H]2O)[C@@H]1O [Compound 14, Luteolin 7-O-malonyl-apiosylglucoside]",–,93.6
"COc1cc(-c2cc(=O)c3c(O)cc(OC4OC(COC(=O)CC(=O)O)C(O)C(O)C4OC4OCC(O)(CO)C4O)cc3o2)ccc1O (stereo not drawn) [Compound 20, Chrysoeriol 7-O-6″-malonyl apiosylglucoside]",–,52.0
"CCCC[C@H]1OC(=O)C2=C1CC[C@H](O)[C@H]2O [Compound 11, Senkyunolide J]",–,50.5

# Source: article PMC10458824, “Identification of Xanthine Oxidase Inhibitors from Celery Seeds Using Affinity Ultrafiltration–Liquid Chromatography–Mass Spectrometry” (Molecules, 2023)
